Reference: PubChem BioAssay (NCI)
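Method: 48-hour compound exposure of cells in 96-well plates, five concentrations, linear interpolation of endpoints. At the TGI there is no net growth.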

How the values were obtained:
Assay in all cases: NCI anticancer screen, dose series, 48 h
[1] = tested on: SF-295 CNS
[2] = tested on: IGROV1 ovarian
[3] = tested on: HCT-116 colon
[4] = tested on: 786-0 renal
[5] = tested on: HS 578T breast
[6] = tested on: UACC-62 melanoma
[7] = tested on: NCI-H522 lung
[8] = tested on: NCI-H226 lung
[9] = tested on: EKVX NSCLC
[10] = tested on: KM12 colon
[11] = tested on: HCC-2998 colon
[12] = tested on: MOLT-4 leukemia
[13] = tested on: NCI/ADR-RES ovarian
[14] = tested on: MDA-MB-435
[15] = tested on: SNB-75 CNS
[16] = tested on: DU-145 prostate
[17] = tested on: HT29 colon
[18] = tested on: SW-620 colon
[19] = tested on: SK-OV-3 ovarian
[20] = tested on: K-562 leukemia
[21] = tested on: SK-MEL-5 melanoma
[22] = tested on: SK-MEL-28 melanoma
[23] = tested on: HOP-62 NSCLC
[24] = tested on: UACC-257 melanoma
[25] = tested on: NCI-H460 lung
[26] = tested on: OVCAR-3 ovarian
[27] = tested on: OVCAR-4 ovarian
[28] = tested on: A549 NSCLC
[29] = tested on: LOX IMVI melanoma
[30] = tested on: SK-MEL-2 melanoma
[31] = tested on: HL-60(TB) leukemia
[32] = tested on: RXF 393 renal
[33] = tested on: MDA-MB-231 breast
[34] = tested on: SF-268 CNS
[35] = tested on: BT-549 breast
[36] = tested on: UO-31 renal
[37] = tested on: T-47D breast
[38] = tested on: SN12C renal
[39] = tested on: TK-10 renal
[40] = tested on: A498 renal
[41] = tested on: MALME-3M melanoma
[42] = tested on: U251 CNS
[43] = tested on: SF-539 CNS
[44] = tested on: RPMI-8226 leukemia
[45] = tested on: ACHN renal
[46] = tested on: CAKI-1 renal
[47] = tested on: M14 melanoma
[48] = tested on: SR leukemia
[49] = tested on: NCI-H23 lung
[50] = tested on: HOP-92 NSCLC
[51] = tested on: OVCAR-5 ovarian
[52] = tested on: SNB-19 CNS
[53] = tested on: PC-3 prostate
[54] = tested on: MDA-N
[55] = tested on: COLO 205 colon
[56] = tested on: HCT-15 colon
[57] = tested on: MCF7 breast
[58] = tested on: OVCAR-8 ovarian
[59] = tested on: CCRF-CEM leukemia
[60] = tested on: HOP-18 NSCLC
[61] = tested on: DMS 114 small cell lung
[62] = tested on: LXFL 529 NSCLC
[63] = tested on: DMS 273 small cell lung
[64] = tested on: M19-MEL melanoma
[65] = tested on: DLD-1 colon

O=C1c2ccccc2CC12Cc1ccc3c(c1C2)CCC3 (centres undefined)
TGI [1]: 76.5 µM
TGI [2]: > 100 µM
TGI [3]: 40.1 µM
TGI [4]: 51.7 µM
TGI [5]: 83.4 µM
TGI [6]: 60.5 µM
TGI [7]: 25.2 µM
TGI [8]: 64.7 µM
TGI [9]: 47.7 µM
TGI [10]: 73.9 µM
TGI [11]: 54.7 µM
TGI [12]: > 100 µM
TGI [13]: 28.4 µM
TGI [14]: 33.7 µM
TGI [15]: 97.9 µM
TGI [16]: > 100 µM
TGI [17]: 29.2 µM
TGI [18]: > 100 µM
TGI [19]: > 100 µM
TGI [20]: > 100 µM
TGI [21]: 28.8 µM
TGI [22]: > 100 µM
TGI [23]: 69.5 µM
TGI [24]: 30.2 µM
TGI [25]: 79.2 µM
TGI [26]: 41.7 µM
TGI [27]: > 100 µM
TGI [28]: 64.2 µM
TGI [29]: 24.8 µM
TGI [30]: 30.2 µM
TGI [31]: 42.1 µM
TGI [32]: 38.7 µM
TGI [33]: 47.1 µM
TGI [34]: > 100 µM
TGI [35]: > 100 µM
TGI [36]: > 100 µM
TGI [37]: > 100 µM
TGI [38]: > 100 µM
TGI [39]: 26.7 µM
TGI [40]: > 100 µM
TGI [41]: 30.3 µM
TGI [42]: 38 µM
TGI [43]: 90.2 µM
TGI [44]: 59.6 µM
TGI [45]: 61 µM
TGI [46]: > 100 µM
TGI [47]: 49.1 µM
TGI [48]: 44.1 µM
TGI [49]: > 100 µM
TGI [50]: 34.9 µM
TGI [51]: 42.2 µM
TGI [52]: > 100 µM
TGI [53]: > 100 µM
TGI [54]: 44.4 µM
TGI [55]: 59.3 µM
TGI [56]: 31.6 µM
TGI [57]: 39.6 µM
TGI [58]: > 100 µM
TGI [59]: 49.3 µM

O=c1cc(-c2ccccc2)[nH]c2cc(Cl)cc(Cl)c12
TGI [60]: > 100 µM
TGI [1]: > 100 µM
TGI [2]: > 100 µM
TGI [3]: > 100 µM
TGI [4]: 60 µM
TGI [61]: > 100 µM
TGI [6]: > 100 µM
TGI [7]: > 100 µM
TGI [8]: > 100 µM
TGI [10]: > 100 µM
TGI [12]: > 100 µM
TGI [15]: 30 µM
TGI [17]: > 100 µM
TGI [18]: > 100 µM
TGI [19]: 59.4 µM
TGI [20]: > 100 µM
TGI [21]: > 100 µM
TGI [22]: > 100 µM
TGI [62]: > 100 µM
TGI [23]: > 100 µM
TGI [24]: > 100 µM
TGI [25]: > 100 µM
TGI [27]: 68.6 µM
TGI [28]: > 100 µM
TGI [29]: > 100 µM
TGI [30]: > 100 µM
TGI [31]: > 100 µM
TGI [32]: 51.2 µM
TGI [34]: > 100 µM
TGI [63]: > 100 µM
TGI [36]: > 100 µM
TGI [38]: > 100 µM
TGI [39]: > 100 µM
TGI [41]: > 100 µM
TGI [42]: > 100 µM
TGI [43]: > 100 µM
TGI [44]: > 100 µM
TGI [64]: > 100 µM
TGI [45]: > 100 µM
TGI [46]: > 100 µM
TGI [47]: > 100 µM
TGI [48]: > 100 µM
TGI [49]: > 100 µM
TGI [50]: 58.3 µM
TGI [51]: > 100 µM
TGI [65]: > 100 µM
TGI [55]: > 100 µM
TGI [56]: > 100 µM
TGI [58]: 83.5 µM
TGI [59]: > 100 µM
